Experimental findings from patent US10968203B2, “Pyrimidinyl-pyridyloxy-naphthyl compounds and methods of treating IRE1-related diseases and disorders” (Genentech, Inc., priority 2017, dated 2021) are described below.

Where a name gives a salt, the structure may show the parent alone.

The first assay has as its system XBP1s-luc 293 LUC. As to the kind of experiment: cellular PD assay, XBP1s-LUC reporter (Example 903). In kind it is cell-based. The note with it: Table 1; read-out: XBP1s-luc 293 LUC (IC50). The protocol: Inhibition of IRE1α RNase activity was determined in an enzyme assay that measured cleavage of the XBP1 stem loop by autophosphorylated IRE1α. This assay format was chosen to ensure that inhibitors of either the IRE1α kinase or the RNase domains would be identified. Binding to the ATP pocket and inhibition of IRE1α kinase activity are not necessarily required to inhibit the RNase activity. Compounds were also profiled in cellular assays by direct measurement of XBP s (B-DNA assay) or by quantification of the luciferase signal in HT1080 XBP1-Luc, which carries a luciferase fusion that is only in frame and expressed from the spliced XBP1 transcript.
Biological activity of Formula I or I′ compounds was measured by an IRE1 biochemical binding assay (Example 901), a biochemical RNase assay (Example 902), a cellular PD assay, XBP1s-LUC reporter (Example 903), and an IRE1α-based inhibition of multiple myeloma (MM) cell proliferation assay.
All of the exemplary Formula I or I′ compounds in Tables 1 and 2 were made and characterized by LCMS [M+H]^+ (liquid chromatography mass spectroscopy) with detection of parent ion. All of the exemplary Formula I compounds in Tables 1 and 2 were prepared according to the procedures of the Schemes, General Procedures, and Examples. All of the exemplary Formula I or I′ compounds in Tables 1 and 2 were tested for binding to IRE1 (inositol requiring enzyme 1 alpha) and biological activity according to the assays and protocols of Example 901-903. Exemplary Formula I or I′ compounds in Tables 1 and 2 have the following structures, corresponding IUPAC names (ChemBioDraw, Version 12.0.2, CambridgeSoft Corp., Cambridge Mass.), and biological activity. Where more than one name is associated with a Formula I or I′ compound or intermediate in Tables 1 and 2 and the Experimental Procedures, the chemical structure shall define the compound. Assignment of configuration at chiral centers in separated stereoisomers may be tentative, and depicted in Tables 1 and 2 structures for illustrative purposes, before stereochemistry is definitively established, such as from x-ray crystallographic data. In some cases, stereoisomers are separated and tested for biological activity before the stereochemistry of the separated stereoisomers is determined; and stereochemistry in some instances was inferred based on structure-activity relationship (SAR) knowledge from previous compounds. In some cases, the compounds are tested as racemic or diastereomeric mixtures. Where more than one potency value is entered on a row, separated stereoisomers represented by the structure and name on that row were tested. Exemplary compounds of Formula I or I′ in Table 3 can be prepared using methods known in the art or according to procedures similar to those described in the Schemes, General Procedures, and Examples 101-500. Biological activities of compounds in Table 3 can be tested in biological assays, for example, those in Examples 901, 902 and 903 described herein.
Consider `Cc1ccc2c(N3CCC4(CCCCC4)C3=O)cccc2c1Oc1ncccc1-c1ccnc(N[C@H]2CCCNC2)n1` [Example 308, (S)-2-(6-Methyl-5-((3-(2-(piperidin-3-ylamino)pyrimidin-4-yl)pyridin-2-yl)oxy)naphthalen-1-yl)-2-azaspiro[4.5]decan-1-one], for which the concentration for half-maximal inhibition (IC50) (in general, the concentration needed to halve the response being measured) worked out at 0.211 µM.

Regarding `Cc1ccc2c(NS(=O)(=O)Cc3ccccn3)cccc2c1Oc1ncccc1-c1ccnc(N[C@H]2CCCNC2)n1` [Example 126, (S)—N-(6-Methyl-5-((3-(2-(piperidin-3-ylamino)pyrimidin-4-yl)pyridin-2-yl)oxy)naphthalen-1-yl)-1-(pyridin-2-yl)methanesulfonamide hydrochloride], the half-maximal inhibitory concentration (IC50) stood at 0.054 µM.

Regarding `Cc1ccc2c(NC(=O)[C@H]3C[C@@H]3F)cccc2c1Oc1ncccc1-c1ccnc(N[C@H]2CCCNC2)n1` [Example 235, (1R,2S)-2-Fluoro-N-(6-methyl-5-((3-(2-(((S)-piperidin-3-yl)amino)pyrimidin-4-yl)pyridin-2-yl)oxy)naphthalen-1-yl)cyclopropane-1-carboxamide], the IC50 worked out at 0.145 µM.

For `Cc1ccc2c(NS(=O)(=O)N3CCCC3)cccc2c1Oc1ncccc1-c1ccnc(N[C@H]2CCCNC2)n1` [Example 108, (S)—N-(6-Methyl-5-((3-(2-(piperidin-3-ylamino)pyrimidin-4-yl)pyridin-2-yl)oxy)naphthalen-1-yl)pyrrolidine-1-sulfonamide hydrochloride], the IC50 came out at 0.298 µM.

Turning to `Cc1nc(CNc2c(F)ccc3c(Oc4ncccc4-c4ccnc(N[C@H]5CCCNC5)n4)c(C)ccc23)cs1` [Example 371, (S)-4-(2-((6-Fluoro-2-methyl-5-(((2-methylthiazol-4-yl)methyl)amino)naphthalen-1-yl)oxy)pyridin-3-yl)-N-(piperidin-3-yl)pyrimidin-2-amine], the 50% inhibitory concentration (IC50) was 0.381 µM.

In the case of `Cc1cc(NS(=O)(=O)Cc2ccccc2)c2ccccc2c1Oc1ncccc1-c1ccnc(N[C@H]2CCCNC2)n1` [Example 163, (S)—N-(3-Methyl-4-((3-(2-(piperidin-3-ylamino)pyrimidin-4-yl)pyridin-2-yl)oxy)naphthalen-1-yl)-1-phenylmethanesulfonamide], the half-maximal inhibitory concentration (IC50) was determined as 0.047 µM.

With `Cc1ccc2c(NC(=O)c3ccccc3)cccc2c1Oc1ncccc1-c1ccnc(N[C@H]2CCCNC2)n1` [Example 115, (S)—N-(6-Methyl-5-((3-(2-(piperidin-3-ylamino)pyrimidin-4-yl)pyridin-2-yl)oxy)naphthalen-1-yl)benzamide hydrochloride], the IC50 was 0.262 µM.

`CCn1ccc(Nc2cccc3c(Oc4ncccc4-c4ccnc(N[C@H]5CCCNC5)n4)c(C)ccc23)n1` [Example 272, (S)-4-(2-((5-((1-Ethyl-1H-pyrazol-3-yl)amino)-2-methylnaphthalen-1-yl)oxy)pyridin-3-yl)-N-(piperidin-3-yl)pyrimidin-2-amine]: the half-inhibitory concentration (IC50) is 0.463 µM.

As to `Cc1ccc2c(NC(=O)c3ccccn3)cccc2c1Oc1ncccc1-c1ccnc(N[C@H]2CCCNC2)n1` [Example 175, (S)—N-(6-Methyl-5-((3-(2-(piperidin-3-ylamino)pyrimidin-4-yl)pyridin-2-yl)oxy)naphthalen-1-yl)picolinamide], the IC50 came to 0.333 µM.

With `Cc1ccc2c(NC(=O)C3(C)CC3)cccc2c1Oc1ncccc1-c1ccnc(N[C@@H]2CNC[C@H](C)C2)n1` [Example 368, 1-Methyl-N-(6-methyl-5-((3-(2-(((3S,5R)-5-methylpiperidin-3-yl)amino)pyrimidin-4-yl)pyridin-2-yl)oxy)naphthalen-1-yl)cyclopropanecarboxamide], the IC50 was determined as 0.214 µM.

Take `Cc1ccc2c(NC(=O)CC3(C)CC3)cccc2c1Oc1ncccc1-c1ccnc(N[C@H]2CCCNC2)n1` [Example 268, (S)—N-(6-Methyl-5-((3-(2-(piperidin-3-ylamino)pyrimidin-4-yl)pyridin-2-yl)oxy)naphthalen-1-yl)-2-(1-methylcyclopropyl)acetamide]: the IC50 came out at 0.257 µM.

As to `Cc1ccc2c(NC(=O)C3CC34CCOC4)cccc2c1Oc1ncccc1-c1ccnc(N[C@H]2CCCNC2)n1` (mixture of isomers) [Example 289, N-(6-Methyl-5-((3-(2-(((S)-piperidin-3-yl)amino)pyrimidin-4-yl)pyridin-2-yl)oxy)naphthalen-1-yl)-5-oxaspiro[2.4]heptane-1-carboxamide], the half-maximal inhibitory concentration (IC50) is 0.431 µM.

Take `Cc1ccc2c(NCCC#N)cccc2c1Oc1ncccc1-c1ccnc(N[C@H]2CCCNC2)n1` [Example 329, (S)-3-((6-Methyl-5-((3-(2-(piperidin-3-ylamino)pyrimidin-4-yl)pyridin-2-yl)oxy)naphthalen-1-yl)amino)propanenitrile]: the half-maximal inhibitory concentration (IC50) is 0.123 µM.

With `CCC1CCC(=O)N1c1cccc2c(Oc3ncccc3-c3ccnc(N[C@H]4CCCNC4)n3)c(C)ccc12` (single isomer, unassigned) [Example 357], the 50% inhibitory concentration (IC50) turned out to be 0.26 µM.

In the case of `Cc1ccc2c(NS(=O)(=O)Cc3cccnc3)cccc2c1Oc1ncccc1-c1ccnc(N[C@H]2CCCNC2)n1` [Example 125, (S)—N-(6-Methyl-5-((3-(2-(piperidin-3-ylamino)pyrimidin-4-yl)pyridin-2-yl)oxy)naphthalen-1-yl)-1-(pyridin-3-yl)methanesulfonamide hydrochloride], the half-maximal inhibitory concentration (IC50) worked out at 0.318 µM.

As for `Cc1ccc2c(NC(=O)CC(C)(C)C)cccc2c1Oc1ncccc1-c1ccnc(N[C@@H]2CNC[C@H](C)C2)n1` [Example 302, 3,3-Dimethyl-N-(6-methyl-5-((3-(2-(((3S,5R)-5-methylpiperidin-3-yl)amino)pyrimidin-4-yl)pyridin-2-yl)oxy)naphthalen-1-yl)butanamide], the concentration for half-maximal inhibition (IC50) came to 0.0935 µM.

As to `Cc1ccc2c(N3CC[C@H](CF)C3=O)cccc2c1Oc1ncccc1-c1ccnc(N[C@H]2CCCNC2)n1` [Example 316, (S)-3-(Fluoromethyl)-1-(6-methyl-5-((3-(2-(((S)-piperidin-3-yl)amino)pyrimidin-4-yl)pyridin-2-yl)oxy)naphthalen-1-yl)pyrrolidin-2-one], the 50% inhibitory concentration (IC50) worked out at 0.213 µM.

With `Cc1ccc2c(NS(=O)(=O)Cc3c(F)cccc3F)c(F)ccc2c1Oc1ncccc1-c1ccnc(N[C@H]2CCCNC2)n1` [Example 213, (S)-1-(2,6-Difluorophenyl)-N-(2-fluoro-6-methyl-5-((3-(2-(piperidin-3-ylamino)pyrimidin-4-yl)pyridin-2-yl)oxy)naphthalen-1-yl)methanesulfonamide], the 50% inhibitory concentration (IC50) stood at 0.00457 µM.

As for `Cc1ccc2c(NC(=O)[C@H]3CC3C3CC3)cccc2c1Oc1ncccc1-c1ccnc(N[C@H]2CCCNC2)n1` (single isomer, unassigned) [Example 273], the 50% inhibitory concentration (IC50) is 0.305 µM.

As to `Cc1cc(NS(=O)(=O)C2CCCC2)c2ccccc2c1Oc1ncccc1-c1ccnc(N[C@H]2CC[C@H](N)CC2)n1` [Example 119, N-(4-((3-(2-(((trans)-4-aminocyclohexyl)amino)pyrimidin-4-yl)pyridin-2-yl)oxy)-3-methylnaphthalen-1-yl)cyclopentanesulfonamide hydrochloride], the IC50 was determined as 0.312 µM.

For the molecule `Cc1ccc2c(Oc3ncccc3-c3ccnc(N[C@H]4CCCNC4)n3)c(C)ccc2c1NS(=O)(=O)CC(C)C` [Example 376, (S)—N-(2,6-Dimethyl-5-((3-(2-(piperidin-3-ylamino)pyrimidin-4-yl)pyridin-2-yl)oxy)naphthalen-1-yl)-2-methylpropane-1-sulfonamide], the IC50 turned out to be 0.0735 µM.

`Cc1ccc2c(NS(=O)(=O)CCCF)cccc2c1Oc1ncccc1-c1ccnc(N[C@H]2CCCNC2)n1` [Example 118, (S)-3-Fluoro-N-(6-methyl-5-((3-(2-(piperidin-3-ylamino)pyrimidin-4-yl)pyridin-2-yl)oxy)naphthalen-1-yl)propane-1-sulfonamide hydrochloride]: the IC50 was found to be 0.323 µM.

Still in this assay, the particulars now being: Table 2; read-out: XBP1s-luc 293 LUC (IC50).
With `CCC(F)(F)CS(=O)(=O)Nc1c(F)ccc2c(Oc3ncccc3-c3ccnc(N[C@H]4CNC[C@H](F)C4)n3)c(C)ccc12` (single isomer, unassigned) [Example 495, hydrochloride], the concentration for half-maximal inhibition (IC50) is 0.469 µM.

On to `Cc1ccc2c(NCC(C#N)C(C)C)cccc2c1Oc1ncccc1-c1ccnc(N[C@H]2CCCNC2)n1` (single isomer, unassigned) [Example 422], for which the 50% inhibitory concentration (IC50) came to 0.083 µM.

As to `CCC(F)(F)CS(=O)(=O)Nc1c(F)ccc2c(Oc3ncccc3-c3ccnc(N[C@@H]4CNC[C@@H](F)C4)n3)c(C)ccc12` (single isomer, unassigned) [Example 496, hydrochloride], the IC50 came out at 0.0179 µM.
